# In the SangsterLogP compilation:
# Experiment: method code SF-AS, from DOI: 10.1177/1934578x0700201005
# Conditions: pH 7.4
row,SMILES,logD
1,O=c1cc(-c2ccccc2)oc2c(O)cccc12,3.03
2,O=c1c(O)c(-c2ccccc2)oc2ccccc12,3.52
3,O=c1cc(-c2ccccc2O)oc2ccccc12,3.01
4,COc1c(-c2ccccc2)oc2ccccc2c1=O,3.18
5,COc1ccc2c(=O)cc(-c3ccccc3)oc2c1O,2.9
6,O=c1cc(-c2ccccc2)oc2cccc(O)c12,3.39
7,COc1cccc2oc(-c3ccccc3)cc(=O)c12,2.98

# Further lines, results first:
row,logD,SMILES
1,3.21,COc1ccc(-c2cc(=O)c3ccccc3o2)cc1
2,3.22,COc1ccc2oc(-c3ccccc3)cc(=O)c2c1
3,3.26,COc1cccc(-c2cc(=O)c3ccccc3o2)c1
4,3.14,COc1ccccc1-c1cc(=O)c2ccccc2o1
5,3.03,O=c1cc(-c2cccc(O)c2)oc2ccccc12
6,3.12,COc1ccc2c(=O)cc(-c3ccccc3)oc2c1
